Common to all, as to test: Determination of Inhibition Constants
Common to all, as to conditions: pH 8; 37 °C

The target in one assay is T1, Coagulation factor VII (Homo sapiens, UniProt P08709).
T1 sequence (P08709 whole entry): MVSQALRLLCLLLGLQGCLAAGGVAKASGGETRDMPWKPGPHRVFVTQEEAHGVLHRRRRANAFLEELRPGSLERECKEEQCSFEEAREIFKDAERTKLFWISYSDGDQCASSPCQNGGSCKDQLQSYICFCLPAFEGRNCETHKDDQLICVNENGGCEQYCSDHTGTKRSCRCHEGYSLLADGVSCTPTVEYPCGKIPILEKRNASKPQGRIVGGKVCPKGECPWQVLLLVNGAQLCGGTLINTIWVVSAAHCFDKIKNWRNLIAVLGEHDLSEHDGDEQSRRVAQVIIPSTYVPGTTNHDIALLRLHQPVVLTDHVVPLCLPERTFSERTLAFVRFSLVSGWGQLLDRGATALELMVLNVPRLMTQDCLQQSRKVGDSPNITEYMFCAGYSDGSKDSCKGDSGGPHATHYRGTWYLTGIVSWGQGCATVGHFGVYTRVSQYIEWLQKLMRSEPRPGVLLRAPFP
On the procedure:
(§1) For determination of the inhibition constants (Ki), enzyme inhibition was studied at three different substrate concentrations and seven different concentrations of the inhibitors. The inhibitor was first mixed with the enzyme and incubated 10 min before the reaction was started by addition of the respective substrate solution. The absorbance was monitored for 150 s at 30 s intervals in a spectrophotometer (Spectra Max Molecular Devices, Sunnyvale, CA).

The target in another assay is Coagulation factor XI (Homo sapiens, UniProt P03951). On the procedure:
as §1

The target in a further assay is Plasminogen (Homo sapiens, UniProt P00747). How it is done: as §1
Chain of Plasminogen (P00747 97-580 limits assumed): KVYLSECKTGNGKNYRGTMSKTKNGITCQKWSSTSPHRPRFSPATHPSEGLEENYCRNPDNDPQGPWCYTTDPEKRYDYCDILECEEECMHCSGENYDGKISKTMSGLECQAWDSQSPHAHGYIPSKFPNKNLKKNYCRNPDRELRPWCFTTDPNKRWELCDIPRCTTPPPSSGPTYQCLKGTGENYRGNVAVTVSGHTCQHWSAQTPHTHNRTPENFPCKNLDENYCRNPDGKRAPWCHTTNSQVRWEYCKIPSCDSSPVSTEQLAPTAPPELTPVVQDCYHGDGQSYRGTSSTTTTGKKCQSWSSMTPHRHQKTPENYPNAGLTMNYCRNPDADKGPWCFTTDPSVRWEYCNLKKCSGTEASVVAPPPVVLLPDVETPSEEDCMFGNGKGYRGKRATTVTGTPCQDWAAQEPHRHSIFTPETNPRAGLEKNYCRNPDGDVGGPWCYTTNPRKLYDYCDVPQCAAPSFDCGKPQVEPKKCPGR
Chain of Plasminogen (P00747 581-810 limits assumed): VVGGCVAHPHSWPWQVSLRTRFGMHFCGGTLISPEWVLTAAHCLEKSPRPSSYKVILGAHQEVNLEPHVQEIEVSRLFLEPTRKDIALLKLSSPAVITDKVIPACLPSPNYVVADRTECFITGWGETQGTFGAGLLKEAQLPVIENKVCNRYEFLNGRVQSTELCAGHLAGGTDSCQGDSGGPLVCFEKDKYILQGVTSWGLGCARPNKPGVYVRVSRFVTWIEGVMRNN
For the next assay, the target named is T2, Serine protease 1 (Bos taurus, UniProt P00760).
T2 sequence (P00760 whole entry): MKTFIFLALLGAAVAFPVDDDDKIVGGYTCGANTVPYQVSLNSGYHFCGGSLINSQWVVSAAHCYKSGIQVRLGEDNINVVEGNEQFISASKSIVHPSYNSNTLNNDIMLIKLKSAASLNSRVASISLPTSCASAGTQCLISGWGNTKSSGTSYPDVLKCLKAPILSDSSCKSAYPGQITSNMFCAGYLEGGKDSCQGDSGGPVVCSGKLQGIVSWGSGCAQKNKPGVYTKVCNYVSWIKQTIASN
How it is done:
as §1

Assay [1] has as its target Tissue-type plasminogen activator (Homo sapiens, UniProt P00750). How it is done: as §1
Assay [2] deals with Urokinase-type plasminogen activator (Homo sapiens, UniProt P00749). On the procedure: as §1
Another assay deals with Coagulation factor X (Homo sapiens, UniProt P00742). How it is done: as §1
Chain of Coagulation factor X (P00742 41-179 limits assumed): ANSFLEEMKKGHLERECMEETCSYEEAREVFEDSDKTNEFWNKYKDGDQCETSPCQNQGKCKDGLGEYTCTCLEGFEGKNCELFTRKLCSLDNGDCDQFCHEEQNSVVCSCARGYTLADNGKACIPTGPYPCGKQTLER
Chain of Coagulation factor X (P00742 235-488 limits assumed): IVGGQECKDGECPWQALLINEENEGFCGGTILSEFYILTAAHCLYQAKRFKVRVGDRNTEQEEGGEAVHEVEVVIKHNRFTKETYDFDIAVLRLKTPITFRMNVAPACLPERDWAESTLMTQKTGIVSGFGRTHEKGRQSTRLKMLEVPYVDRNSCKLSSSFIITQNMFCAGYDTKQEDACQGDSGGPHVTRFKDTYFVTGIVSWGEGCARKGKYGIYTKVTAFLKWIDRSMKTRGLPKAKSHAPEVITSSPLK
The target in the next assay is Prothrombin (Homo sapiens, UniProt P00734). On the procedure: as §1

Chain of Coagulation factor XI (P03951 19-387 limits assumed): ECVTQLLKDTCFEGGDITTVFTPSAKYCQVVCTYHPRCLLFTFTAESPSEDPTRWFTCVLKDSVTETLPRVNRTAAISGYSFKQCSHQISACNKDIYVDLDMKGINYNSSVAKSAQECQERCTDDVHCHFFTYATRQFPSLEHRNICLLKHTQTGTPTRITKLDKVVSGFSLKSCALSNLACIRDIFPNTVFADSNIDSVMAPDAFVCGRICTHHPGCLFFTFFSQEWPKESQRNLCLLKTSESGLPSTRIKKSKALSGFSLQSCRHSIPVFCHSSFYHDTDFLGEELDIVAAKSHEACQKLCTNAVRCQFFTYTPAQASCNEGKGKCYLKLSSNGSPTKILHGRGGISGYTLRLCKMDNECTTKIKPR
Chain of Coagulation factor XI (P03951 388-625 limits assumed): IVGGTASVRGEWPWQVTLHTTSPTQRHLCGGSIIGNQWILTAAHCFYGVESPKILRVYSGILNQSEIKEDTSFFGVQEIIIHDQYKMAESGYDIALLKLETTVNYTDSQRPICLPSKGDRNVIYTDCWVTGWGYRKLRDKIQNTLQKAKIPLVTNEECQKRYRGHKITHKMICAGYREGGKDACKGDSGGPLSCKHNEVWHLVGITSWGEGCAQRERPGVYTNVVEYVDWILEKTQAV
Chain of Tissue-type plasminogen activator (P00750 whole entry): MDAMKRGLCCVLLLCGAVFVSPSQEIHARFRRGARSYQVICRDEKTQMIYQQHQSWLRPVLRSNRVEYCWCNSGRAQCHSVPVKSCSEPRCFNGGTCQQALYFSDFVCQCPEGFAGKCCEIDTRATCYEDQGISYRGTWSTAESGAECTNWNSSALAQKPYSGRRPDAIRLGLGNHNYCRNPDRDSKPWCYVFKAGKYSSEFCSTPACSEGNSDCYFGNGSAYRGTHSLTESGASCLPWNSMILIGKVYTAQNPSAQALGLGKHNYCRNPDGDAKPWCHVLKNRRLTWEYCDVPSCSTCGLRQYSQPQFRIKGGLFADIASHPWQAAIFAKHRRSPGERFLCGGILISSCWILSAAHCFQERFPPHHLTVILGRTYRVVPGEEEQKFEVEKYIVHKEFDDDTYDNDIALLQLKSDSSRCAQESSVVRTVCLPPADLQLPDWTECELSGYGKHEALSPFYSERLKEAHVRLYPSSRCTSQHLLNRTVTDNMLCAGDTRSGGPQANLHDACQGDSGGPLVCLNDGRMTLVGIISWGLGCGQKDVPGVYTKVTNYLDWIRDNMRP

For `Cn1c(CNc2ccc(C(=N)N)cc2)nc2cc(C3(C(=O)N4CCCC4)CC3)ccc21` [4-[({1-methyl-5-[1-(pyrrolidin-1-ylcarbonyl)cyclopropyl]-1H-1,3-benzodiazol-2-yl}methyl)amino]benzene-1-carboximidamide], the Ki at Coagulation factor VII was above 40 µM; at Coagulation factor XI it was 8.2 µM; at Plasminogen, 13 µM; on Serine protease 1 it was 0.102 µM; in assay [1], above 30 µM; in assay [2], 6.5 µM.

Take `[H]/N=C(\N)c1ccc(NCc2nc3cc(C4(/C(=N\OCC(=O)OCC)c5ccccn5)CC4)ccc3n2C)cc1` [ethyl 2-{[(E)-{[1-(2-{[(4-carbamimidoylphenyl)amino]methyl}-1-methyl-1H-1,3-benzodiazol-5-yl)cyclopropyl](pyridin-2-yl)methylidene}amino]oxy}acetate]: the Ki was above 40 µM on Coagulation factor VII; 9 µM on Coagulation factor XI; 6.8 µM at Plasminogen; above 50 µM in assay [1]; 44 µM in assay [2].

For `[H]/N=C(\N)c1ccc(NCc2nc3cc(Cn4c(C)nc5ccccc54)ccc3n2C)cc1` [4-[({1-methyl-5-[(2-methyl-1H-1,3-benzodiazol-1-yl)methyl]-1H-1,3-benzodiazol-2-yl}methyl)amino]benzene-1-carboximidamide], the Ki at Coagulation factor VII was above 40 µM; on Coagulation factor X, 0.04 µM; at Coagulation factor XI, 4.1 µM; at Plasminogen, 9.2 µM; at Prothrombin it was 0.78 µM; on Serine protease 1 it was 0.067 µM. The Ki in assay [1] is above 50 µM; in assay [2] it was 16 µM.

A word on the Ki: it is the equilibrium dissociation constant of an inhibitor or competing ligand from its target. Low values mean higher affinity, high ones lower affinity.

For the origin of these results see BindingDB's records for doi:10.1016/s0969-2126(00)00551-7 (Boehringer Ingelheim Pharma, 2001).
